Assay results reported in patent publication US20250345383A1, “INTRANASAL ADMINISTRATION OF POLYSULFIDE” (The General Hospital Corporation, priority 2022, published 2025).

How the values were obtained:
mice subjected to SCI = assay: Mouse model of spinal cord ischemia (SCI): delayed paraplegia, hindlimb motor function by Basso mouse scale (BMS); type: in vivo
Description: Adult C57BL/6J mice (12-18 weeks old) of both sexes were purchased from Jackson Laboratory (Bar Harbor, ME, USA). Both male and female mice were used in experiments to investigate the neuroprotective effect of GSSSG on motor function after SCI. […] All mice were housed in a temperature and humidity-controlled room in the animal center with a 12-hour light/dark cycle, and were provided with food and water ab libitum. To permit access by mice that were recovering from surgery, additional food pellets were inserted into hydrated gel placed on the bedding. A randomized paired design was used to minimize the variability between each treatment group. Mice were paired based on weight, age, delivery dates, and when possible, holding cages. After the pairing, mice were randomly assigned to different treatments.
The surgical procedures to produce delayed paraplegia in mice were performed as previously described^6 (FIG. 2A). Mice were anesthetized with 5% isoflurane in 100% O2 and tracheally intubated with a 20-gauge catheter (Angiocath; Becton Dickinson, Franklin Lakes, NJ, USA). […] The paravertebral muscle temperature was measured using a T-type implantable thermocouple probe (IT-18) and a T-type pod (ADInstruments, Colorado Springs, CO, USA). […] A median sternotomy extended from the apex of the manubrium to the second rib. The aortic arch was gently isolated between the left common carotid artery (LCCA) and the left subclavian artery (LSA), avoiding the vagus nerve and the left recurrent laryngeal nerve. […] After ischemia, the clips were removed in reverse order. Incisions were closed in layers and mechanical ventilation was discontinued. After stable spontaneous respiration was confirmed, mice were extubated.
The previously described surgical procedures^6 were modified as follows. The respiratory rate during the procedure was increased to 230 breaths/minute, because hyperventilation promotes the occurrence of delayed paraplegia caused by spinal cord ischemia^33. A laser Doppler perfusion monitor (moorVMS-LDF1; Moor Instruments, Millwey, UK) was used to monitor the femoral artery blood flow^28,29. […] To improve the accuracy of surgical procedures, a microscope (Leica MZ95; Leica Microsystems, Buffalo Grove, IL, USA) was used to isolate the aortic arch and place the clips.
Study drugs were administered intranasally using a single-channel pipettor. Mice were anesthetized with 3% isoflurane using a non-rebreathing circuit with a mouse nose cone (VetEquip, Inc., Livermore, CA, USA). While the drugs were administered, the nose cone was removed and mice were allowed to breathe air. Approximately 6 μL of each drug was administered into the mouse's nostrils and the mouse inhaled the droplets during inspiration. […]

primary cortical neurons [1] = assay: Cell viability after oxygen and glucose deprivation/reoxygenation (OGD/R), primary cortical neurons; type: cell-based, mouse; conditions: GSSSG at 30 μM, GSH at 60 μM, GSSG at 30 μM; vs vehicle-only treated cells
Procedure: Primary cortical neurons were isolated from the cerebral cortices of C57BL/6J mice of both sexes at embryonic day 15, as previously described 39. Primary cortical neurons were maintained at 37° C. in a humidified tissue culture chamber with 5% CO2 and cells were used on day 11 after harvest. […] After reoxygenation, cell viability and cell injury were assessed using crystal violet and lactate dehydrogenase (LDH) assays, as previously described^39.

[2] = LC-MS/MS of ^34S-labeled GSSSG and sulfane sulfur species in CNS and plasma after intranasal GS^34SSG; type: in vivo, mouse
Procedure: We used LC-MS/MS analysis to measure the amount of ^34S-labeled GSSSG ([^32S2, ^34S]GSSSG) in the CNS and plasma after intranasal administration of GS^34SSG, an isotope of endogenous GSSSG^9,35,36. The ratios of ^34S-labeled sulfane sulfur species ([^32S, ^34S]GSSH, [^32S, ^34S]cysteine hydropersulfide (CysSSH), and [^32S2, ^34S]cysteine trisulfide (CysSSSCys)) to endogenous sulfane sulfur species ([^32S2]GSSH, [^32S2]CysSSH, and […]) were also quantitatively evaluated. At 30 minutes after intranasal administration of 50 mg/kg of GS^34SSG, blood was obtained and four different central nervous tissues were harvested: olfactory bulb and forebrain; brainstem; cervical and thoracic spinal cord, and lumbar spinal cord. A total of 30 mg of each tissue was homogenized in 300 μl of ice-cold methanol solution containing 5 mM β-(4-hydroxyphenyl)ethyl iodoacetamide (HPE-IAM; Santa Cruz Biotechnology, Dallas, TX, USA). Twenty-five μl of plasma was mixed with 75 μl of ice-cold methanol solution containing 5 mM HPE-IAM. Samples were incubated for 20 minutes at 37° C. in the dark. After centrifugation (14,000×g for tissues, 1,870×g for plasma, 10 minutes, 4° C.), the supernatant was separated and diluted with 0.1% formic acid for LC-MS/MS analysis, and the pellet was sonicated to measure the protein concentration by BCA assay. The amount of [^32S2, ^34S]GSSSG was quantified in selective reaction monitoring (SRM) with precursor ion (647.14 m/z), product ion (389.1 m/z), and higher energy collisional dissociation (21 v). The ratios of [^32S, ^34S]GSSH to [^32S2]GSSH, [^32S, ^34S]CysSSH to [^32S2]CysSSH, and [^32S2, ^34S]CysSSSCys to [^32S3]CysSSSCys were calculated from their peak area measured by Dionex UltiMate 3000 RS UPLC-Orbitrap Exploris 480 mass spectrometer (Thermo Fisher Scientific, Waltham, MA, USA). In brief, samples were subjected to the UPLC system with a Hypersil Gold C-18 (100×2.1 mm, 3.0 μm, Thermo Fisher Scientific, Waltham, MA, USA) column and were then eluted by a linear methanol gradient of the mobile phase (0-90%, 15 minutes) in the presence of 0.1% formic acid at a flow rate of 0.2 ml/minute at 40° C. The raw data were analyzed by Compound Discoverer 3.3 software (Thermo Fisher Scientific, Waltham, MA, USA). The molecular weights of these sulfane sulfur species combined with HPE-IAM were determined based on previous reports^9,11,37.

[3] = tested on: murine primary cortical neurons; assay: Cell viability of murine primary cortical neurons incubated with MPP+ (crystal violet assay); type: cell-based, mouse; conditions: MPP+ 50 μM, 24 hours
Procedure: (§1) Cell viability assays was performed to examine cell viabilities of SH-SY5Y cells or murine primary cortical neurons 24 h after the addition of MPP^+ (5 mM for SH-SY5Y, 50 μM for primary cortical neurons) with vehicle (PBS), Na2S (Sigma-Aldrich), Na2S3 (Dojindo Molecular Technologies, Inc), GSSSG (Glutathione trisulfide, Kyowa Hakko Bio Co., Ltd., Tokyo, Japan), LA (α-Lipoic acid, Sigma-Aldrich) or LASSS (α-Lipoic acid trisulfide, Kyowa Hakko Bio Co., Ltd., Tokyo, Japan). Cell viability was measured using the crystal violet assay.

primary cortical neurons [4] = assay: Relative sulfane sulfur levels in primary cortical neurons (SSip-1 DA); type: cell-based, mouse; conditions: incubation at 10 μM for 20 minutes; relative to untreated neurons
Procedure: Primary cortical neurons were isolated from the cerebral cortices of C57BL/6J mice of both sexes at embryonic day 15, as previously described 39. Primary cortical neurons were maintained at 37° C. in a humidified tissue culture chamber with 5% CO2 and cells were used on day 11 after harvest.
(§2) Primary cortical neurons or SH-SY5Y cells, a human neuroblastoma cell line (American Type Culture Collection, Manassas, VA, USA), were incubated with SSip-1 DA […] at 37° C. for 20 minutes in the dark. Cells were washed with pre-warmed HBSS containing calcium and magnesium (Thermo Fisher Scientific, Waltham, MA, USA) and then cells were incubated with GSSSG, sodium trisulfide (Na2S3; Dojindo Molecular Technologies, Inc., Rockville, MD, USA), PTN-SSS, or vehicle alone for 20 minutes at 37° C. in the dark. Fluorescence intensities were measured using a microplate reader.

SH-SY5Y cells [5] = assay: Cell viability of SH-SY5Y cells incubated with MPP+ (crystal violet assay); type: cell-based, human; conditions: MPP+ 5 mM, 24 h
Procedure: as §1

[6] = tested on: sulfane sulfur in olfactory bulb and forebrain, whole spinal cord; assay: Relative sulfane sulfur levels in olfactory bulb and forebrain and whole spinal cord after intranasal PTN-SSS (SSip-1); type: in vivo, mouse; conditions: 30 minutes after intranasal 50 mg/kg PTN-SSS; vs vehicle alone
Procedure: At 30 minutes after intranasal administration of 50 mg/kg of PTN-SSS, the olfactory bulb and forebrain and the whole spinal cord were harvested. Tissues were homogenized in HBSS containing […] of SSip-1. The fluorescence intensities of supernatants were measured.

SH-SY5Y cells [7] = assay: Relative sulfane sulfur levels in SH-SY5Y cells (SSip-1 DA); type: cell-based, human; conditions: PTN-SSS 10-50 μM; vs vehicle-only treated cells
Procedure: as §2

SH-SY5Y cells [8] = assay: Cell viability after OGD/R, SH-SY5Y cells; type: cell-based, human
Procedure: After reoxygenation, cell viability and cell injury were assessed using crystal violet and lactate dehydrogenase (LDH) assays, as previously described^39.

[9] = Water solubility of PTN-SSS; type: physicochemical
[10] = Stability of PTN-SSS in solution; type: physicochemical; conditions: pH 4.0-9.0 at room temperature
[11] = 30 minutes after intranasal 50 mg/kg GS^34SSG, mean ± SD

Compound: N[C@@H](CCC(=O)N[C@@H](CS)C(=O)NCC(=O)O)C(=O)O [GSH, glutathione, reference compound]
- mice in which development of delayed paraplegia was prevented (mice subjected to SCI; male mice, n=11 per group, intranasal at 0, 8, 23, 32 hours after surgery, GSSSG 50 mg/kg, GSH 45.2 mg/kg): 27%
- cell viability after OGD/R, crystal violet assay (GSSSG, GSH, GSSG comparison) (primary cortical neurons [1]): did not improve cell viability

Compound: N[C@@H](CCC(=O)N[C@@H](CS[34S]SC[C@H](NC(=O)CC[C@H](N)C(=O)O)C(=O)NCC(=O)O)C(=O)NCC(=O)O)C(=O)O [GS^34SSG]
- [^32S2, ^34S]GSSSG concentration in plasma [2, 11]: 25 ± 10 nM
- [^32S2, ^34S]GSSSG in brainstem [2, 11]: 226±101 pmol/mg protein
- [^32S2, ^34S]GSSSG in cervical and thoracic spinal cord [2, 11]: 414±98 pmol/mg protein
- [^32S2, ^34S]GSSSG in lumbar spinal cord [2, 11]: 317±111 pmol/mg protein
- [^32S2, ^34S]GSSSG in olfactory bulb and forebrain [2, 11]: 128±67 pmol/mg protein
- ratio of [^32S2, ^34S]CysSSSCys to [^32S3]CysSSSCys in brain and spinal cord [2, 11]: 31.8±9.8
- ratio of [^32S, ^34S]GSSH to [^32S2]GSSH in brain and spinal cord [2, 11]: 6.5±2.8
- concentration of ^34S-labeled GSSSG in the central nervous system ([2]; 30 minutes after intranasal GS^34SSG, all CNS tissues): 268±140 pmol/mg protein
- level of ^34S-labeled CysSSH in lumbar spinal cord ([2]; after intranasal GS^34SSG, worked out from previously reported endogenous CysSSH level): ~18 pmol/mg protein
- level of ^34S-labeled GSSH in lumbar spinal cord ([2]; after intranasal GS^34SSG, worked out from previously reported endogenous GSSH level): approximately 1,600 pmol/mg protein

Compound: O=C(O)CCCCC1CCSSS1 (centres unmarked) [LA-SSS, 1,2,3-trithiane-4-pentanoic acid]
- protection of murine primary cortical neurons from the effects of MPP+ treatment [3]: protected

Compound: [Na+].[Na+].[S-]S[S-] [Na2S3, sodium trisulfide, reference compound]
- levels of intracellular sulfane sulfur in primary cortical neurons (primary cortical neurons [4]): increased levels of intracellular sulfane sulfur
- viability of MPP+-treated SH-SY5Y cells (SH-SY5Y cells [5]; 10 μM each): increased the viability

Compound: [Na+].[Na+].[S-2] [Na2S]
- viability of SH-SY5Y cells treated with MPP+ (SH-SY5Y cells [5]; Na2S doses between 1 and 100 μM): did not improve the viability

Compound: CC(C)(CO)[C@@H](O)C(=O)NCCC(=O)NCCSSSCCNC(=O)CCNC(=O)[C@H](O)C(C)(C)CO [PTN-SSS, pantethine trisulfide]
- male mice rescued from delayed paraplegia (mice subjected to SCI; PTN-SSS study, n=9 per group, intranasal PTN-SSS 50 mg/kg or PTN 47.3 mg/kg at 0, 8, 23, 32 hours after surgery): 66%
- sulfane sulfur levels in the olfactory bulb and forebrain and the whole spinal cord [6]: increased sulfane sulfur levels
- sulfane sulfur levels in SH-SY5Y cells (SH-SY5Y cells [7]): increased significantly
- SH-SY5Y viability after OGD/R, crystal violet assay (SH-SY5Y cells [8]; PTN-SSS at 10 μM, 25 μM, or 50 μM, vs vehicle-only treated cells): significantly improved
- SH-SY5Y viability after OGD/R, crystal violet assay (SH-SY5Y cells [8]; PTN-SSS at 100 μM): did not improve cell viability
- water solubility [9]: > 50 mg/mL
- stable in solution [10]: at least 4 days
